From patent US20140249135A1, “PIM KINASE INHIBITORS AND METHODS OF THEIR USE” (NOVARTIS AG, priority 2007, published 2014)

Key:
Pim2 kinase = Pim2 kinase (Homo sapiens, UniProt Q9P1W9); assay: Pim2 ATP depletion assay; assay type: biochemical; details: read-out: IC50 (μM) PIM2;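 note: Luciferase-based luminescent readout of ATP remaining after PIM2 phosphorylates a BAD peptide, final 5 nM enzyme, 4 µM ATP, 10 µM peptide, 2.5% DMSO, run to roughly half ATP consumption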
KDR kinase = KDR kinase (Homo sapiens, UniProt P35968); assay: KDR AlphaScreen assay; details: KDR IC50 (μM)
[1] = molecular target: T1, human full length PKCE enzyme (Homo sapiens, UniProt Q02156); assay: In vitro PKCE assay; assay type: biochemical; details: 10 nM enzyme, 40 uM peptide substrate, 20 uM ATP, KinaseGlo Plus readout; read-out: PKCε IC50
T1 construct: human full length PKCE enzyme purchased from InVitrogen; purchased InVitrogen
T1 sequence (Q02156 1-737): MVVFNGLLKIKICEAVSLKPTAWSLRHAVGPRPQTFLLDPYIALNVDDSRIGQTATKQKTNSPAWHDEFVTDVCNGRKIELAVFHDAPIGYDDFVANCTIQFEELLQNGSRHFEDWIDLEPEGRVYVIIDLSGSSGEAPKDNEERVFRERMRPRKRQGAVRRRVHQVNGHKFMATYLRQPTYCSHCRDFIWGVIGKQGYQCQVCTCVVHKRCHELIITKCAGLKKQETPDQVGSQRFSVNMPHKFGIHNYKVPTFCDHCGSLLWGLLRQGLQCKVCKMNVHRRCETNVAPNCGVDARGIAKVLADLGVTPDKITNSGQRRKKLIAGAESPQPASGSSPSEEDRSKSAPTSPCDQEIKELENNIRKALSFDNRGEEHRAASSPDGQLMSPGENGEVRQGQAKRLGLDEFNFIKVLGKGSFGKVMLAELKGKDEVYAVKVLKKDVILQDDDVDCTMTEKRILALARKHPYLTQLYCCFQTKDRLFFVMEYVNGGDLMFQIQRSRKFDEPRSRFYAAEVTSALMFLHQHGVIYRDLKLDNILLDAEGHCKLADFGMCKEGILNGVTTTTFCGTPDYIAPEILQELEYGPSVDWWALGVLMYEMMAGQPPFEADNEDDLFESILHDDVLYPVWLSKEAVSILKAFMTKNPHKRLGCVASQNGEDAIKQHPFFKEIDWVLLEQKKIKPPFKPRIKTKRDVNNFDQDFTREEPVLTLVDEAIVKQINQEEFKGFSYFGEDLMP

Pim1 kinase = Pim1 kinase (Homo sapiens, UniProt P11309); assay: Pim1 ATP depletion assay; assay type: biochemical; details: Pim1 ATP depletion assay; read-out: IC50 (μM) PIM1;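 note: Luciferase-luciferin luminescence readout of residual ATP after PIM1 transfers phosphate to a peptide substrate, 40 µM ATP added, reaction run to roughly half ATP consumption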
Pim3 kinase = Pim3 kinase (Homo sapiens, UniProt Q86V86); assay: Pim3 ATP depletion assay; assay type: biochemical; details: read-out: IC50 (μM) PIM3

Pim1 kinase, sequence (P11309 whole entry): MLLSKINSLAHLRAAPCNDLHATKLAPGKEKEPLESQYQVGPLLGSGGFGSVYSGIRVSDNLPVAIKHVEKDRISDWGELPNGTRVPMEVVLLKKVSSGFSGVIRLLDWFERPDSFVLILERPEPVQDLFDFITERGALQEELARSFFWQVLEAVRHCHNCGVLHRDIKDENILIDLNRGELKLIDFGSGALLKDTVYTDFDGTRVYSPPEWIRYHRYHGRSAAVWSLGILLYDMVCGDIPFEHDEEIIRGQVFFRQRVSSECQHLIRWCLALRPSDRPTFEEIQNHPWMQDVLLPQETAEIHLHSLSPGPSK
Pim2 kinase, sequence (Q9P1W9 whole entry): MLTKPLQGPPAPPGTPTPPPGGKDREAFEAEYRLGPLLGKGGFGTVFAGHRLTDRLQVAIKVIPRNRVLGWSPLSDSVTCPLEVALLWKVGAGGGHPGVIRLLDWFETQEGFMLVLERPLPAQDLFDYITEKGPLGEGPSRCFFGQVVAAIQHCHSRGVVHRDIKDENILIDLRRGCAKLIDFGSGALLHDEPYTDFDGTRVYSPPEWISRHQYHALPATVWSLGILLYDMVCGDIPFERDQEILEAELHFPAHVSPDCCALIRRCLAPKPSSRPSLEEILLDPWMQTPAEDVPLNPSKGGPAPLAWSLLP
KDR kinase, sequence (P35968 20-1356): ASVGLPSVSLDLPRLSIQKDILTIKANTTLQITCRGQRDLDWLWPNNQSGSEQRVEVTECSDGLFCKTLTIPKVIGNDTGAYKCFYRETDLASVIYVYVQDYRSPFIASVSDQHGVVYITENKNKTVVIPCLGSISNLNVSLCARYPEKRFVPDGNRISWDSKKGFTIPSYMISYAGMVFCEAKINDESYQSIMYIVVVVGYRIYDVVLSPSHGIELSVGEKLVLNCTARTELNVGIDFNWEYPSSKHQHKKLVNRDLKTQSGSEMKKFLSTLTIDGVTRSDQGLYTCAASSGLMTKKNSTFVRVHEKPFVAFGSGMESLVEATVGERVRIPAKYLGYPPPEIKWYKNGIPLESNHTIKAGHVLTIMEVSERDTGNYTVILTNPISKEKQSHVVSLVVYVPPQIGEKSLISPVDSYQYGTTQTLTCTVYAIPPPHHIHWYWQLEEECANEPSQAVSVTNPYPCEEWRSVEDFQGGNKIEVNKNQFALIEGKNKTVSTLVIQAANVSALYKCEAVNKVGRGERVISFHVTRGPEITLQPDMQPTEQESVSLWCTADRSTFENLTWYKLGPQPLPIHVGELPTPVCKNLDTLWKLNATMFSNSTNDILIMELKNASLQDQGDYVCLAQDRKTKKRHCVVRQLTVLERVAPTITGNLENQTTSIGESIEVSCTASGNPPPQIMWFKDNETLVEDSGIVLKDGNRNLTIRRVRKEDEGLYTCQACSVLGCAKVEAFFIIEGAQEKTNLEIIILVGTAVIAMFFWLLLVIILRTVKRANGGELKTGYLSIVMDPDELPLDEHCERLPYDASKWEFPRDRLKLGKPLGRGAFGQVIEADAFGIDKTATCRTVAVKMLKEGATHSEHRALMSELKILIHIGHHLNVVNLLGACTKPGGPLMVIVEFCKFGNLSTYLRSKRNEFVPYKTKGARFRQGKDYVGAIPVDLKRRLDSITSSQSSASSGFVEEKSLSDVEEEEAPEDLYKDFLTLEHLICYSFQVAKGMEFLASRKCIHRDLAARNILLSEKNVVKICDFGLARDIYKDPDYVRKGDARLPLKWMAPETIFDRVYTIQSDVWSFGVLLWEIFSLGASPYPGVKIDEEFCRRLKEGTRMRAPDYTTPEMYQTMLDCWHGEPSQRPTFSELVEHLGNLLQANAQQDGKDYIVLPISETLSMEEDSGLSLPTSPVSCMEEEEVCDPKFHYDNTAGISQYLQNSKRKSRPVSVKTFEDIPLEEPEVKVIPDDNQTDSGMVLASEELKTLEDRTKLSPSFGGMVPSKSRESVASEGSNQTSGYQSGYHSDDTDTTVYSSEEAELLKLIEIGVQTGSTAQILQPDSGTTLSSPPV

| Compound | IC50 (Pim2 kinase) [µM] | IC50 (KDR kinase) [µM] | IC50 [1] [nM] | IC50 (Pim1 kinase) [µM] | IC50 (Pim3 kinase) [µM] |
| --- | --- | --- | --- | --- | --- |
| COc1ccc(-c2cnc(N)c(C(=O)Nc3cc(C(=O)c4ccccc4)ccc3N3CCNCC3)n2)cc1 [Example 441, 3-amino-6-(4-methoxy-phenyl)-pyrazine-2-carboxylic acid (5-benzoyl-2-piperazin-1-yl-phenyl)-amide] | > 25 | < 1 | 10000 to 25000 | 1 to 10 | 1 to 10 |
| COc1cncc(-c2cnc(N)c(C(=O)Nc3cnccc3N3CCC(N)CC3)n2)n1 [Example 366, 5-amino-6′-methoxy-[2,2′]bi-pyrazinyl-6-carboxylic acid (4-amino-3,4,5,6-tetrahydro-2H-[1,4′]bipyridinyl-3′-yl)-amide] | 1 to 10 | < 1 | < 1000 | < 1 | < 1 |
| Nc1ncc(-c2ccccc2Oc2ccccc2)nc1C(=O)Nc1ccccc1N1CCNCC1 [Example 387, 3-amino-6-(2-phenoxy-phenyl)-pyrazine-2-carboxylic acid (2-piperazin-1-yl-phenyl)-amide] | > 25 | 10 to 25 | 1000 to 10000 | 1 to 10 | 1 to 10 |
| Nc1nccnc1C(=O)Nc1cc(C(=O)c2ccccc2)ccc1N1CCC(N)CC1 [Example 233, 3-amino-pyrazine-2-carboxylic acid [2-(4-amino-piperidin-1-yl)-5-benzoyl-phenyl]-amide] | > 25 | 1 to 10 | 1000 to 10000 | 1 to 10 | 1 to 10 |
| COc1ccc(N2CCCC(N)C2)c(NC(=O)c2nccnc2N)c1 (stereo not drawn) [Example 223, 3-amino-N-[2-(3-aminopiperidin-1-yl)-5-methoxyphenyl]pyrazine-2-carboxamide] | 1 to 10 | > 25 | < 1000 | < 1 | < 1 |
| Nc1ncc(Br)nc1C(=O)Nc1cnccc1N1CCCCC1 [Example 119, 3-amino-6-bromo-N-(4-piperidin-1-ylpyridin-3-yl)pyrazine-2-carboxamide] | < 1 | 1 to 10 | < 1000 | < 1 | < 1 |
| NCC(=O)N1CCN(c2ccncc2NC(=O)c2nc(Cl)c(N)nc2N)CC1 [Example 186, 3,5-diamino-N-{4-[4-(amino-acetyl)piperazin-1-yl]pyridin-3-yl}-6-chloropyrazine-2-carboxamide] | < 1 | 1 to 10 | 1000 to 10000 | < 1 | < 1 |
| Nc1nccnc1C(=O)Nc1cc(C(=O)C2CC2)ccc1N1CCCC(N)C1 (stereo not drawn) [Example 243, 3-amino-pyrazine-2-carboxylic acid [2-(3-amino-piperidin-1-yl)-5-cyclopropanecarbonyl-phenyl]-amide] | 10 to 25 | > 25 | 1000 to 10000 | 1 to 10 | 1 to 10 |
| Nc1ncc(-c2ccoc2)nc1C(=O)Nc1ccccc1N1CCC(N)CC1 [Example 379, 3-amino-6-furan-3-yl-pyrazine-2-carboxylic acid [2-(4-amino-piperidin-1-yl)-phenyl]-amide] | 1 to 10 | 1 to 10 | < 1000 | < 1 | < 1 |
| COc1ccc(N2CCC(N)CC2)c(NC(=O)c2nc(Br)cnc2N)c1 [Example 211, 3-amino-N-[2-(4-aminopiperidin-1-yl)-5-methoxyphenyl]-6-bromopyrazine-2-carboxamide] | < 1 | 1 to 10 | < 1000 | < 1 | < 1 |
| CC(=O)c1ccc(N2CCNCC2)c(NC(=O)c2nccnc2N)c1 [Example 219, N-(5-acetyl-2-piperazin-1-yl-phenyl)-3-aminopyrazine-2-carboxamide] | 10 to 25 | > 25 | 1000 to 10000 | < 1 | < 1 |
| Nc1ncc(Br)nc1C(=O)Nc1ccccc1N1CCCC(N)C1 (stereo not drawn) [Example 204, 3-amino-N-[2-(3-aminopiperidin-1-yl)phenyl]-6-bromopyrazine-2-carboxamide] | < 1 | 1 to 10 | < 1000 | < 1 | < 1 |
